Assays:
Assay in all cases: relative viability (nuclei count vs DMSO), 5 days (fraction); higher = more cells survive
H3255 = tested on: H3255
Summary of the method: (§1)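 Lung cancer cell lines were seeded in 1536-well plates and dosed by pin tool the next day, with either a single drug or a fixed anchor-drug dose combined with five library-drug doses (not always all listed) spaced in √10 steps. Five days later, one step fixed the cells and stained their nuclei (final 0.05% Triton X-100, 1% formaldehyde, 1 ug/ml Hoechst), and nuclei were counted on 4× images. Relative viability is the nuclei count in treated wells divided by the count in vehicle wells, and each value is the median of duplicate plates.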

COR-L 105 = tested on: COR-L 105
Summary of the method: as §1

SK-MES-1 = tested on: SK-MES-1
Summary of the method: as §1

EMC-BAC-2 = tested on: EMC-BAC-2
Summary of the method: as §1

NCI-H1734 = tested on: NCI-H1734
Summary of the method: as §1

A-427 = tested on: A-427
Summary of the method: as §1

NCI-H441 = tested on: NCI-H441
Summary of the method: as §1

NCI-H23 = tested on: NCI-H23
Summary of the method: as §1

PC-3 [JPC-3] = tested on: PC-3 [JPC-3]
Summary of the method: as §1

LOU-NH91 = tested on: LOU-NH91
Summary of the method: as §1

ChaGo-K-1 = tested on: ChaGo-K-1
Summary of the method: as §1

`O=c1cc(N2CCOCC2)oc2c(-c3cccc4c3sc3ccccc34)cccc12` + COc1cc2c(Oc3ccc(NC(=O)C4(C(=O)Nc5ccc(F)cc5)CC4)cc3F)ccnc2cc1OCCCN1CCOCC1 [Foretinib] (partner 0.25 µM) showed a relative viability (H3255; first compound 0.01 µM) of 0.82, a relative viability (H3255; first compound 0.03162 µM) of 0.952 and a relative viability (H3255; first compound 0.1 µM) of 0.826. It also gave a relative viability (H3255; first compound 0.3162 µM) of 0.83, a relative viability (H3255; first compound 1 µM) of 0.943 and a relative viability (COR-L 105; first compound 0.01 µM) of 0.986. It also gave a relative viability (COR-L 105; first compound 0.03162 µM) of 1.1, a relative viability (COR-L 105; first compound 0.1 µM) of 0.681 and a relative viability (COR-L 105; first compound 0.3162 µM) of 1.04. The relative viability (COR-L 105; first compound 1 µM) was 1.21, the relative viability (SK-MES-1; first compound 0.01 µM) was 1.13 and the relative viability (SK-MES-1; first compound 0.03162 µM) was 0.771. The relative viability (SK-MES-1; first compound 0.1 µM) was 0.847, the relative viability (SK-MES-1; first compound 0.3162 µM) was 0.968 and the relative viability (SK-MES-1; first compound 1 µM) was 0.91. The relative viability (EMC-BAC-2; first compound 0.01 µM) was 1.01, the relative viability (EMC-BAC-2; first compound 0.03162 µM) was 0.995 and the relative viability (EMC-BAC-2; first compound 0.1 µM) was 0.99. The relative viability (EMC-BAC-2; first compound 0.3162 µM) was 0.983, the relative viability (EMC-BAC-2; first compound 1 µM) was 0.978 and the relative viability (NCI-H1734; first compound 0.01 µM) was 0.851. It also gave a relative viability (NCI-H1734; first compound 0.03162 µM) of 1.03, a relative viability (NCI-H1734; first compound 0.1 µM) of 0.894 and a relative viability (NCI-H1734; first compound 0.3162 µM) of 0.837. It also gave a relative viability (NCI-H1734; first compound 1 µM) of 0.78, a relative viability (A-427; first compound 0.01 µM) of 1.04 and a relative viability (A-427; first compound 0.03162 µM) of 1.2. For the same compound, the relative viability (A-427; first compound 0.1 µM) was 0.972, the relative viability (A-427; first compound 0.3162 µM) was 1.01 and the relative viability (A-427; first compound 1 µM) was 1. The relative viability (NCI-H441; first compound 0.01 µM) was 1.17, the relative viability (NCI-H441; first compound 0.03162 µM) was 0.864 and the relative viability (NCI-H441; first compound 0.1 µM) was 1.02. It also gave a relative viability (NCI-H441; first compound 0.3162 µM) of 0.992, a relative viability (NCI-H441; first compound 1 µM) of 0.969 and a relative viability (NCI-H23; first compound 0.01 µM) of 1.02. It also gave a relative viability (NCI-H23; first compound 0.03162 µM) of 1.01, a relative viability (NCI-H23; first compound 0.3162 µM) of 1.06 and a relative viability (NCI-H23; first compound 1 µM) of 0.919. For the same compound, the relative viability (PC-3 [JPC-3]; first compound 0.01 µM) was 1.01, the relative viability (PC-3 [JPC-3]; first compound 0.03162 µM) was 1.08 and the relative viability (PC-3 [JPC-3]; first compound 0.1 µM) was 1.05. It also gave a relative viability (PC-3 [JPC-3]; first compound 0.3162 µM) of 1.01, a relative viability (PC-3 [JPC-3]; first compound 1 µM) of 1.06 and a relative viability (LOU-NH91; first compound 0.01 µM) of 0.869. For the same compound, the relative viability (LOU-NH91; first compound 0.03162 µM) was 0.938, the relative viability (LOU-NH91; first compound 0.1 µM) was 1 and the relative viability (LOU-NH91; first compound 0.3162 µM) was 0.927. It also gave a relative viability (LOU-NH91; first compound 1 µM) of 0.955, a relative viability (ChaGo-K-1; first compound 0.01 µM) of 0.901 and a relative viability (ChaGo-K-1; first compound 0.03162 µM) of 1.01. The relative viability (ChaGo-K-1; first compound 0.1 µM) was 0.948, the relative viability (ChaGo-K-1; first compound 0.3162 µM) was 0.869 and the relative viability (ChaGo-K-1; first compound 1 µM) was 0.96.

— the supplement of paper PMC10307832
